From patent US10633375B2, “Oxopicolinamide derivative, preparation method therefor and pharmaceutical use thereof” (Jiangsu Hengrui Medicine Co., Ltd., priority 2016, dated 2020)

Assays:
[1] = target: Coagulation Factor XIa protease (Homo sapiens (Human), UniProt P03951); assay: Inhibition of Factor XIa detected by absorption photometry; format: biochemical; settings: absorbance at 405 nm, 10 minutes at 37° C.
In short: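 Compounds were serially diluted in 100% DMSO (200-0.002 μM dilution series) before addition to the wells. FXIa enzyme solution at 2.5 μg/ml and substrate solution at 2 mM were then added, both stock concentrations. After 10 min at 37° C., absorbance was read at 405 nm.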

human blood = assay: In vitro anticoagulant effect on human blood (APTT, CT2); settings: Table 2; concentration corresponding to 2 times the APTT of the blank control, human plasma
Procedure: Test Example 2: Determination of In Vitro Anticoagulant Effect of the Compounds of the Present Invention on Human Blood
1. Experimental Materials
Plasma: Human blood was collected in blood collection tubes containing no anticoagulant, and then 3.8% sodium citrate (volume ratio 1:9) was added. The tubes were centrifuged at 2500 rpm for 10 minutes at room temperature, and then the plasma was collected and stored at −80° C.;
Reagents: APTT reagent (Activated partial thromboplastin time assay kit, SIEMENS, Art. No. B4218-1), calcium chloride solution;
Instrument: Coagulation instrument (SYSMEX, CA-500).
The divided plasma was melted at room temperature and mixed well. 10000 μM the test compound dissolved in 100% DMSO was diluted to 3000, 300, 200, 150, 75, 30, 10, 3, 0.3 μM with 100% DMSO, and the blank was 100% DMSO. The reagent, plasma, and compound were placed in corresponding positions in the coagulation instrument, and APTT detection of the compound was carried out.
Curve fitting was carried out by graphpad and CT2 was calculated, i.e., the concentration of the compound corresponding to 2 times the APTT of the blank control.

Coagulation Factor XIa protease, sequence (P03951 388-625): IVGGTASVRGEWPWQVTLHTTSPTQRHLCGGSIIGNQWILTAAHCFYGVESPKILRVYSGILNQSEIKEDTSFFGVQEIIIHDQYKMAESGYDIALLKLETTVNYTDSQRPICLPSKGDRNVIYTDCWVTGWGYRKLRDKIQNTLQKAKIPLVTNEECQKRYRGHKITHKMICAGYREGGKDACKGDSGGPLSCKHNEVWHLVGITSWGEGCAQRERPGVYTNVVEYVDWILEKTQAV
Coagulation Factor XIa protease, sequence (P03951 19-387 partner): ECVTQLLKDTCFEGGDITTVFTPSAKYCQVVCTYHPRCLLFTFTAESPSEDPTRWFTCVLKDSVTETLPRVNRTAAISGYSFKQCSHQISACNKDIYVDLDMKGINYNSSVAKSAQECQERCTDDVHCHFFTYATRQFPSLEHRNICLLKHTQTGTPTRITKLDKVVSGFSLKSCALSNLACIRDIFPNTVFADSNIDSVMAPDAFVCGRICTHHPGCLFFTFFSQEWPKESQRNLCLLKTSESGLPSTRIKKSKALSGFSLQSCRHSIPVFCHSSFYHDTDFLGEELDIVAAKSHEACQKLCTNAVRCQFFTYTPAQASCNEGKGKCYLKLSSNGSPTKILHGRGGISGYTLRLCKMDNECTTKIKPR

Row | SMILES | IC50 [1] | CT2, concentration doubling APTT (human blood)
1 | CCC(=O)c1ccc(Cl)cc1-c1cc(=O)n(C(Cc2ccn(C)n2)C(=O)Nc2ccc(C(=O)O)cc2)cc1OC (stereo not shown) [Example 99, 4-(2-(4-(5-chloro-2-propionylphenyl)-5-methoxy-2-oxopyridin-1(2H)-yl)-3-(1-methyl-1H-pyrazol-3-yl)propanamido)benzoic acid] | 29 nM | 3.5 µM
2 | COc1cn(C(Cc2ccn(C)n2)C(=O)Nc2ccc(C(=O)O)cc2)c(=O)cc1-c1cc(Cl)ccc1C(C)=O (stereo not shown) [Example 100, 4-(2-(4-(2-acetyl-5-chlorophenyl)-5-methoxy-2-oxopyridin-1(2H)-yl)-3-(1-methyl-1H-pyrazol-3-yl)propanamido)benzoic acid] | 35 nM | 3.3 µM
3 | COc1cn([C@H](Cc2cnn(C)c2)C(=O)Nc2ccc(C(=O)O)cc2)c(=O)cc1-c1cc(Cl)ccc1C(C)=O [Example 104, (R)-4-(2-(4-(2-acetyl-5-chlorophenyl)-5-methoxy-2-oxopyridin-1 (2H)-yl)-3-(1-methyl-1H-pyrazol-4-yl)propanamido)benzoic acid] | 8150 nM | >10000 µM
4 | COc1cn([C@@H](Cc2cnn(C)c2)C(=O)Nc2ccc(C(=O)O)cc2)c(=O)cc1-c1cc(Cl)ccc1C(C)=O [Example 105, (S)-4-(2-(4-(2-acetyl-5-chlorophenyl)-5-methoxy-2-oxopyridin-1(2H)-yl)-3-(1-methyl-1H-pyrazol-4-yl)propanamido)benzoic acid] | 30 nM | 6.9 µM
5 | COc1cn([C@H](CCOC(C)(C)C)C(=O)Nc2ccc(C(=O)O)cc2)c(=O)cc1-c1cc(Cl)ccc1C(C)=O [Example 112, (R)-4-(2-(4-(2-acetyl-5-chlorophenyl)-5-methoxy-2-oxopyridin-1(2H)-yl)-4-(tert-butoxy)butanamido)benzoic acid] | > 10000 nM | >10000 µM
6 | COc1cn([C@H](CCOC2CCC2)C(=O)Nc2ccc(C(=O)O)cc2)c(=O)cc1-c1cc(Cl)ccc1C(C)=O [Example 163, (R)-4-(2-(4-(2-acetyl-5-chlorophenyl)-5-methoxy-2-oxopyridin-1 (2H)-yl)-4-cyclobutoxybutanamido)benzoic acid] | 9110 nM | >10000 µM
7 | COc1cn([C@@H](CCOC2CCC2)C(=O)Nc2ccc(C(=O)O)cc2)c(=O)cc1-c1cc(Cl)ccc1C(C)=O [Example 164, (S)-4-(2-(4-(2-acetyl-5-chlorophenyl)-5-methoxy-2-oxopyridin-1(2H)-yl)-4-cyclobutoxybutanamido)benzoic acid] | 30 nM | 6.4 µM
8 | CCC(=O)c1ccc(Cl)cc1-c1cc(=O)n(C(CC2CCCCO2)C(=O)Nc2ccc(C(=O)O)cc2)cc1OC (stereo not shown) [Example 166] | 42 nM | 7.2 µM
